Test results as given in patent US11241406B2, “Compositions and methods for acutley raising nitric oxide levels” (Nature's Sunshine Products, Inc., priority 2015, dated 2022).

Legend:
Myeloperoxidase (MPO) = molecular target: T1, Myeloperoxidase (MPO) (Homo sapiens, UniProt P05164); experiment: Myeloperoxidase Inhibitor Screening Assay (chlorination, hypochlorous acid production); type: biochemical; conditions: MPO inhibition; parenthetic values are 95% confidence interval; read-out: Observed IC50 (converted)
T1 sequence (P05164 49-745): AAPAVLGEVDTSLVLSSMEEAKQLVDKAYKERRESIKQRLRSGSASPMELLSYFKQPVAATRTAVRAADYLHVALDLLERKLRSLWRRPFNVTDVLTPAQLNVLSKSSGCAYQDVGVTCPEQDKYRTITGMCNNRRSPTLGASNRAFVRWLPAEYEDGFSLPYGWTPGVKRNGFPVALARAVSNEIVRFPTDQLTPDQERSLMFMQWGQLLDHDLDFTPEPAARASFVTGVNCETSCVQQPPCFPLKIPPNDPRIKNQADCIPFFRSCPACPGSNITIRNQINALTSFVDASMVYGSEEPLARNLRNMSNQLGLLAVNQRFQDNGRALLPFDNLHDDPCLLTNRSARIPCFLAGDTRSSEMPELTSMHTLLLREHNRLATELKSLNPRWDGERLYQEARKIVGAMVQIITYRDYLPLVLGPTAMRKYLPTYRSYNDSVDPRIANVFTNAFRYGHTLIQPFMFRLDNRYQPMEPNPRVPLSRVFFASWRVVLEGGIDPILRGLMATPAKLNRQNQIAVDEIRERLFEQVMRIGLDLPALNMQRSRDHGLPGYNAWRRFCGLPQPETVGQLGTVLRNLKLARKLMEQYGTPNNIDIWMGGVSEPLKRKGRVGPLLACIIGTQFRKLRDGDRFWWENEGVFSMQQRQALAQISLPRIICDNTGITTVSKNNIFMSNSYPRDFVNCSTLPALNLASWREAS
Method: Formulations 1 and 2, as described in Table 2 above, were tested for their synergistic activity. Additional samples of F1 and F2 were prepared at an initial concentration of 100 mg/mL in an acetone:water (1:1) solution, sonicated in an ice bath for 60 min with vortexing every 10 min, and centrifuged at 3000 rpm at ambient temperature for 5 min. The supernatant liquid was transferred to fresh tubes and centrifuged again at 13,300 rpm at ambient temperature for 10 min. This final supernatant fraction was transferred to fresh tubes and stored at −80° C. until assayed.
The acetone used in this example was obtained through Fisher Chemical Co (Pittsburgh, Pa.) and was the highest purity available. […]
The chlorination assay utilizes the non-fluorescent 2-[6-(4-aminophenoxy)-3-oxo-3H-xanthen-9-yl]-benzoic acid (APF), which is selectively cleaved by hypochlorite to yield the highly fluorescent compound fluorescein. Fluorescein fluorescence was analyzed with an excitation wavelength of 480-495 nm and an emission wavelength of 515-525 nm using a Cytation5 microplate fluorescence reader (Bio Tek Instruments, Winooski, Vt.).
The median inhibitory concentration (IC50) for the inhibition of MPO activity was calculated using CalcuSyn (BIOSOFT, Ferguson, Mo.). […]
Synergy of test components was then quantified using the combination index (CI) parameter. […]

[1] = cited from earlier work
[2] = test system: NO biomarker NO2 in saliva; experiment: Salivary NO biomarker (NO2) test strips after dosing of the formulations; type: in vivo, human; conditions: pharmacodynamic studies in this laboratory
Method: Over three days, subjects, with normal plasma concentrations of ADMA, were instructed to consume the 10 g of either F1 or F2 with 500 mL of water subsequent to developing the first, pre-dose NO strip. At post-dosing times 30, 60 and 90 minutes, NO strips were again developed for all subjects. One subject was given a 2× dose (20 g) of both formulations over the experimental period. The salivary NO strips, which detect salivary NO2, were nitric Oxide Test Strips (Berkeley Test, Berkeley, Calif.). Color development of NO strips was quantitated using densitometry. Means and 95% confidence intervals were computed using Excel [Microsoft, Redman, Wash.].
The assay of nitrite in saliva and nitrate in Test Formulation 3 (F3) was conducted as described in Example 1. Color development of NO strips was quantitated as described in Example 1. Means and 95% confidence intervals were computed as described in Example 1.
During the morning period, subjects (n=5), with normal plasma concentrations of ADMA, were instructed to consume 5 mL of the F3 with 500 mL of water subsequent to developing the first, pre-dose NO strip. At post-dosing times 30, 60 and 90 minutes, NO strips were again developed for all subjects.

IC50 (Myeloperoxidase (MPO)) | SMILES | bioavailability ([1]; dietary NO3) | half-life in plasma ([1]; orally consumed NO3) | time to peak plasma concentration ([1]; orally consumed NO3) | NO3 content that does not produce a detectable increase in NO strip color development [2]
46.4 µM | N=C(N)NCCC[C@H](N)C(=O)O [L-Arginine] | – | – | – | –
103 µM | NC(=O)NCCC[C@H](N)C(=O)O [L-Citrulline] | – | – | – | –
– | O=[N+]([O-])O [NO3] | 100% | about 5 hours | about 1 hour | below 12.5 mg NO3/dose
